The results in this text go back to ChEMBL document CHEMBL1127588, “A structure-activity relationship study of benzylic modifications of 4-[1-(1-naphthyl)ethyl]-1H-imidazoles on alpha 1- and alpha 2-adrenergic receptors” (J Med Chem, 1994).

Test [1] is described as follows: Ratio between IC50 values of alpha 1 and alpha 2 receptors.
Test [2] addresses Adrenergic receptor alpha (Rattus norvegicus) (UniProt P15823+P23944+P43140+P22086+P19328+P22909). The test can be described thus: Ratio between EC50 values of alpha 1 and alpha 2 receptors. The format is protein assay.
In test [3] the target is T1, Adrenergic receptor alpha-1 (Rattus norvegicus, UniProt P15823+P23944+P43140).
T1 sequence (P15823 whole entry): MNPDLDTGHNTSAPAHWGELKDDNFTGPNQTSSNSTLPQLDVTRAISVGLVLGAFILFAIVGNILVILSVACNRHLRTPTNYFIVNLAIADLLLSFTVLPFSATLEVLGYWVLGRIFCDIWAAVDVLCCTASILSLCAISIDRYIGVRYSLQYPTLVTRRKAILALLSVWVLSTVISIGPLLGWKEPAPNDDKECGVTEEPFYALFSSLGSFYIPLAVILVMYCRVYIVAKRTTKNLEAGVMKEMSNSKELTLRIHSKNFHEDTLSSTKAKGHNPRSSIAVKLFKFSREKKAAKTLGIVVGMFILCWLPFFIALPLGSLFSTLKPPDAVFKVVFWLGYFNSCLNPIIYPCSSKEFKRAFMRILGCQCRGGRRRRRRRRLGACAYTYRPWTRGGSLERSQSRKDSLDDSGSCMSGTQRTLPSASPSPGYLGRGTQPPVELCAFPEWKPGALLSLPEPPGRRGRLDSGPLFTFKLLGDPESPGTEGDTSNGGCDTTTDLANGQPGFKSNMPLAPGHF
T1 sequence (P23944 whole entry): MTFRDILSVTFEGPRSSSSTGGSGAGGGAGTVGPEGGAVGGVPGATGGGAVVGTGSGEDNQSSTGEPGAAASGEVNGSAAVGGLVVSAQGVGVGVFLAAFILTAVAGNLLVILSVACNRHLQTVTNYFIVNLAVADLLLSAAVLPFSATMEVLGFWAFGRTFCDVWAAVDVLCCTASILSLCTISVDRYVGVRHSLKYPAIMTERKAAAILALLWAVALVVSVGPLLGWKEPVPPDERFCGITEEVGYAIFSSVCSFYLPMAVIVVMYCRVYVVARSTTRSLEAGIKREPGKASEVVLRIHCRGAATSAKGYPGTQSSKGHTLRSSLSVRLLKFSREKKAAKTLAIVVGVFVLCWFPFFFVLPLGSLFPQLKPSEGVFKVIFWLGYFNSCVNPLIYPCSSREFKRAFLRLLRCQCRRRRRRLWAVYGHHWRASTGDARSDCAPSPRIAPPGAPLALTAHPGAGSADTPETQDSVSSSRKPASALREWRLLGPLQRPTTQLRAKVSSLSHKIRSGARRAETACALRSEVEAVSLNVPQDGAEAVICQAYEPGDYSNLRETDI
T1 sequence (P43140 whole entry): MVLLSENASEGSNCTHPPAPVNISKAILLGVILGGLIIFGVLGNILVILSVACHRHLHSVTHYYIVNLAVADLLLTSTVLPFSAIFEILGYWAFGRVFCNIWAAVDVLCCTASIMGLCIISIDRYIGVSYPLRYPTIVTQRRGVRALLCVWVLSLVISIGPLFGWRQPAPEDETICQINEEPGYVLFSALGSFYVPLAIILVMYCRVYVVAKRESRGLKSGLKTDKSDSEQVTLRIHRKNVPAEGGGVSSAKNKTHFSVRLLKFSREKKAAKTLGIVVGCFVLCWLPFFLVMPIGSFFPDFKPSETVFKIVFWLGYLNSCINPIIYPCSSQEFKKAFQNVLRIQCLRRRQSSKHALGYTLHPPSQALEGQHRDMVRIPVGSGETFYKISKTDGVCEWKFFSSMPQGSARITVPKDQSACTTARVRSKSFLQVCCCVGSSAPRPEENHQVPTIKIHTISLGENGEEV
The test can be described thus: Tested for its binding affinity against alpha-1 receptor in rat brain membrane. The format is cell membranes.

Test [4] has as its target T2, Adrenergic receptor alpha-2 (Rattus norvegicus, UniProt P22086+P19328+P22909).
T2 sequence (P22086 whole entry): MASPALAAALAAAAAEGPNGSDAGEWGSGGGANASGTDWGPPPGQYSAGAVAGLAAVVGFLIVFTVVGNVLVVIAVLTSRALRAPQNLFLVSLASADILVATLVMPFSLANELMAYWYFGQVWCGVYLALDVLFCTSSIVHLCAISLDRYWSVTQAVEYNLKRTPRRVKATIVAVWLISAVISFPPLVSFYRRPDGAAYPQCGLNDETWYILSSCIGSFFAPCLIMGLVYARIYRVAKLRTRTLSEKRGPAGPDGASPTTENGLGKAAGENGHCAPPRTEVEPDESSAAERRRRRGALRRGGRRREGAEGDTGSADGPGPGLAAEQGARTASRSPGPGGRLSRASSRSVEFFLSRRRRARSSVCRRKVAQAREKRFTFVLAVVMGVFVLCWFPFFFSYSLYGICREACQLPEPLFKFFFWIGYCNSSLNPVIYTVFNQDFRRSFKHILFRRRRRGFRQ
T2 sequence (P19328 whole entry): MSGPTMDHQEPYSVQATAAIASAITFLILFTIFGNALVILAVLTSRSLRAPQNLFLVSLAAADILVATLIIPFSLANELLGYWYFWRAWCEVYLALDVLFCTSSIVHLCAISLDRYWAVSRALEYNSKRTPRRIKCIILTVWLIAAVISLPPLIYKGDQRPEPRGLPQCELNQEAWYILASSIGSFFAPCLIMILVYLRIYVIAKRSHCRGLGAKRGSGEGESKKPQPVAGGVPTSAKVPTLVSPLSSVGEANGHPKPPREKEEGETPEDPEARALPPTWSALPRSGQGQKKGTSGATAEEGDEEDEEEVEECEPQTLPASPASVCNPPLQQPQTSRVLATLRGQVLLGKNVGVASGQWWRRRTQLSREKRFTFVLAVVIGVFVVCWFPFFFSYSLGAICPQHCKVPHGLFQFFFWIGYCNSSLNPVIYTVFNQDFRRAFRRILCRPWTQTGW
T2 sequence (P22909 whole entry): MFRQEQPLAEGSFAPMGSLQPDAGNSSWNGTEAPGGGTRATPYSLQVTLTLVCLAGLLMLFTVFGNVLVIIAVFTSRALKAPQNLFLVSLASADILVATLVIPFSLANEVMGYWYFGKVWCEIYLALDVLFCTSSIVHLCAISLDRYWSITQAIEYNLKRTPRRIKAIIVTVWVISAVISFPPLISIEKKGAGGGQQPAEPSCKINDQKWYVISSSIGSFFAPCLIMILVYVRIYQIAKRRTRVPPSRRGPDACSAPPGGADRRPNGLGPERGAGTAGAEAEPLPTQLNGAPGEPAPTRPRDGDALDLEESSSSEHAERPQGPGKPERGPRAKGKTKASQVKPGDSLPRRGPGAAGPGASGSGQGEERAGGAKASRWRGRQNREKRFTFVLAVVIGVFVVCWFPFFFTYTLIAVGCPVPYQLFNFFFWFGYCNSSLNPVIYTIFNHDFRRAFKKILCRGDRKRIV
In words: Tested for its binding affinity against alpha-2 receptor in rat brain membrane. The format is cell membranes.

Turning to `CC(c1c[nH]cn1)c1cccc2ccccc12` (stereo in doubt; 2), the values for the Ratio in test [1] and in test [2] were 18.2 and 643, respectively.

For `CC(c1c[nH]cn1)c1cccc2ccccc12` (stereo in doubt; S-(-)-2), in test [1], the Ratio is 22.3.

As a reminder, the Ki is a measure of affinity in units of concentration, obtained from inhibition or displacement. Read a low Ki as a stronger hold on the target. Turning to `O=C(O)C(=O)O.O=C(c1c[nH]cn1)c1cccc2ccccc12`, the values for the Ki in test [3] and in test [4] were 15.902 µM and 31.754 µM, respectively. Besides, in test [1], the Ratio was 0.5.

Take `CC(c1c[nH]cn1)c1cccc2ccccc12` (stereo in doubt; S-(+)-2): the Ratio in test [1] came out at 41.9; in test [2] it was 752.

Turning to `Cl.OC(c1c[nH]cn1)(c1cccc2ccccc12)C(F)(F)F` (stereo unspecified), the results for the Ki in test [3] and in test [4] were more than 50 µM and more than 24.539 µM, respectively. In test [1], the Ratio is more than 2.
